According to US10472344B2, “Factor XIa inhibitors” (MERCK SHARP & DOHME CORP., priority 2015, dated 2019):

Key:
[1] = biological target: purified human Factor XIa (Homo sapiens (Human), UniProt P03951); experiment: Factor XIa Assay; format: biochemical; settings: fluorogenic substrate Z-Gly-Pro-Arg-AFC, 40 pM enzyme, pH 7.4; read-out: Human FXIa Ki
Experimental: (§1) The effectiveness of a compound of the present invention as an inhibitor of Coagulation Factor XIa can be determined using a relevant purified serine protease, and an appropriate synthetic substrate. The rate of hydrolysis of the chromogenic or fluorogenic substrate by the relevant serine protease was measured both in the absence and presence of compounds of the present invention. Assays were conducted at room temperature or at 37° C. […] A decrease in the rate of fluorescence change in the presence of inhibitor is indicative of enzyme inhibition. Such methods are known to one skilled in the art. The results of this assay are expressed as the inhibitory constant, Ki.
Factor XIa determinations were made in 50 mM HEPES buffer at pH 7.4 containing 150 mM NaCl, 5 mM CaCl2, and 0.1% PEG 8000 (polyethylene glycol; JT Baker or Fisher Scientific). Determinations were made using purified human Factor XIa at a final concentration of 40 pM (Sekisui Diagnostics) and he synthetic substrate, Z-Gly-Pro-Arg-AFC, TFA salt (Sigma #C0980) at a concentration of […].
Activity assays were performed by diluting a stock solution of substrate at least tenfold to a final concentration ≤0.1 Km into a solution containing enzyme or enzyme equilibrated with inhibitor. Times required to achieve equilibration between enzyme and inhibitor were determined in control experiments. Initial velocities of product formation in the absence (V0) or presence of inhibitor (V1) were measured. Assuming competitive inhibition, and that unity is negligible compared Km/[S], [I]/e, and [I]/e (where [S], [I], and e respectively represent the total concentrations, of substrate, inhibitor and enzyme), the equilibrium constant (Ki) for dissociation of the inhibitor from the enzyme can be obtained from the dependence of V0/Vi on [I] shown in the following equation. V0/Vi=1+[I]/Ki

[2] = biological target: purified Human plasma kallikrein (Homo sapiens (Human), UniProt P03952); experiment: Kallikrein Assay; format: biochemical; settings: fluorogenic substrate Acetyl-K-P-R-AFC, 0.5 nM enzyme, pH 7.4; Ki from IC50 by Cheng Prusoff
Experimental: as §1, with “Kallikrein” for “Coagulation Factor XIa”
Kallikrein determinations were made in 50 mM HEPES buffer at pH 7.4 containing 150 mM NaCl, 5 mM CaCl2, and 0.1% PEG 8000 (polyethylene glycol; Fisher Scientific). Determinations were made using purified Human plasma kallikrein at a final concentration of 0.5 nM (Enzyme Research Laboratories) and the synthetic substrate, Acetyl-K-P-R-AFC (Sigma #C6608) at a concentration of […].
Activity assays were performed by diluting a stock solution of substrate at least tenfold to a final concentration≤0.2 Km into a solution containing enzyme or enzyme equilibrated with inhibitor. Times required to achieve equilibration between enzyme and inhibitor were determined in control experiments. The reactions were performed under linear progress curve conditions and fluorescence increase measured at 405 Ex/510 Em nm. Values were converted to percent inhibition of the control reaction (after subtracting 100% Inhibition value). IC50 was determined by inflection point from a four parameter logistic curve fit. Ki was calculated using the Cheng Prusoff equation, Ki=IC50/(1+([S]/Km)).

Chain of purified Human plasma kallikrein (P03952 391-638): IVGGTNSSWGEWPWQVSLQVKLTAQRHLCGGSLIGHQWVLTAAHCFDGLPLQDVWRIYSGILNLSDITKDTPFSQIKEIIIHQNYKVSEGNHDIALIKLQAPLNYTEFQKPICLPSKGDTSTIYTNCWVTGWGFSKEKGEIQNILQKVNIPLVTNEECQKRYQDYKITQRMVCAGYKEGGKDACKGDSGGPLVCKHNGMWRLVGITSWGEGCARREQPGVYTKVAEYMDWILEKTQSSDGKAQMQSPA
Chain of purified Human plasma kallikrein (P03952 20-390 partner): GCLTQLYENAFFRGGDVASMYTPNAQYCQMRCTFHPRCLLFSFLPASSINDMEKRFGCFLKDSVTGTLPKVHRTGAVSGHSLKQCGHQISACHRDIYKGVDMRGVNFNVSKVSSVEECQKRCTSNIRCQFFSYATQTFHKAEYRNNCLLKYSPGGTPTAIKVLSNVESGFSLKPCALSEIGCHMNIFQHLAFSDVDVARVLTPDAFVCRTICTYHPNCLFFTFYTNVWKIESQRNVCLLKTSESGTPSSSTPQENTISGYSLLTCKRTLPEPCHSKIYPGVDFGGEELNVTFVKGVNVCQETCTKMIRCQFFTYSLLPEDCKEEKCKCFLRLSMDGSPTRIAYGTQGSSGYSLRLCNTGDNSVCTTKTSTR
Chain of purified human Factor XIa (P03951 388-625): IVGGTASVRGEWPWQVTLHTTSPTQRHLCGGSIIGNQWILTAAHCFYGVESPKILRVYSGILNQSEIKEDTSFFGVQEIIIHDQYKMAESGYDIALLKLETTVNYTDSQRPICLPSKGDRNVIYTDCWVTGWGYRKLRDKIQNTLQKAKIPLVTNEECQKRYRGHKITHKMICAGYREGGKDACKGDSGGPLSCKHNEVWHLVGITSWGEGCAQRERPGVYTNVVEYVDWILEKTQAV
Chain of purified human Factor XIa (P03951 19-387 partner): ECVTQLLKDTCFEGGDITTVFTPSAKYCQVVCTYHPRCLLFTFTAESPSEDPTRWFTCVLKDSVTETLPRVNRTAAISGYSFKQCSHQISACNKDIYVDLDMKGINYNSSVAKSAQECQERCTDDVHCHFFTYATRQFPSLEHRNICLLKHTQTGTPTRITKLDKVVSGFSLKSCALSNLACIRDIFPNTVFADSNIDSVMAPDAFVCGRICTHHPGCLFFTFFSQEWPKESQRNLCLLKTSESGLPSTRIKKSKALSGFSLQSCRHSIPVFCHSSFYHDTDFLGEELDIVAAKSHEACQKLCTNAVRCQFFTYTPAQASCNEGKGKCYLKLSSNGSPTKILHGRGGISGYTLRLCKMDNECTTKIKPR

Structure (SMILES)	Ki [1] [nM]	Ki [2] [nM]
COC(=O)Nc1ccc(C(=O)N[C@@H](Cc2ccccc2)c2ccc(-c3cc(Cl)ccc3-n3cnnn3)c[n+]2[O-])cc1 [Example 2, (S)-5-(5-chloro-2-(1H-tetrazol-1-yl)phenyl)-2-(1-(4-((methoxycarbonyl)amino)benzamido)-2-phenylethyl)pyridine 1-oxide]	3.6	105
COC(=O)Nc1cccc(C(=O)NC(Cc2ccccc2)c2ccc(-c3cc(Cl)ccc3-n3cnnn3)c[n+]2[O-])c1 (stereo not drawn) [Example 3]	144	
NC(=O)c1ccc(C(=O)N[C@@H](Cc2ccccc2)c2ccc(-c3cc(Cl)ccc3-n3cnnn3)c[n+]2[O-])s1 [Example 4]	1.3	36

Continued, values first:

Ki [1] [nM]	Ki [2] [nM]	Structure (SMILES)
0.9	25	Nc1n[nH]c2cc(C(=O)N[C@@H](Cc3ccccc3)c3ccc(-c4cc(Cl)ccc4-n4cnnn4)c[n+]3[O-])ccc12 [Example 1, (S)-2-(1-(3-AMMONIO-1H-INDAZOLE-6-CARBOXAMIDO)-2-PHENYLETHYL)-5-(5-CHLORO-2-(1H-TETRAZOL-1-YL)PHENYL)PYRIDINE 1-OXIDE 2,2,2-TRIFLUOROACETATE]
83		O=C(O)c1ccc(C(=O)NC(Cc2ccccc2)c2ccc(-c3cc(Cl)ccc3-n3cnnn3)c[n+]2[O-])cc1 (stereo not drawn) [Example 5]
6.9	219	O=C(O)c1ccc(C(=O)N[C@@H](Cc2ccccc2)c2ccc(-c3cc(Cl)ccc3-n3cnnn3)c[n+]2[O-])s1 [Example 6]
20	516	COCC(=O)Nc1ccc(C(=O)N[C@@H](Cc2ccccc2)c2ccc(-c3cc(Cl)ccc3-n3cnnn3)c[n+]2[O-])cc1 [Example 7]
